Source: patent US4554274A, “Nb Quaternary derivatives of ajmaline and isoajmaline, methods and intermediate products in the manufacture of their derivatives and method of using same and pharmaceutical compositions thereof” (priority 1979, dated 1985)
Counter-ions that a name gives are not always drawn. Like-named read-outs stand apart in the source and are kept apart here.

What was measured:
[1] = acute toxicity (LD50) in mice; type: in vivo; conditions: mouse, in vivo, male NMRI-mice, mortality on 7th day
Procedure: (§1) The acute toxicity of the compounds is determined in male NMRI-mice (body weight range 18-22 g) after oral (p.o.) and intraperitonal (i.p.) administration. The LD50 is defined as that dose in μmol/kg which causes a 50% mortality rate of the test animals on the 7th day after application. The calculation of the LD50 is carried out by probitanalysis (see L. Cavalli-Sforza, Grundbegriffe der Biometric, Gustav Fischer Verlag Stuttgart (1964)).

[2] = test system: male Wista rats (aconitine); assay: aconitine infusion in rats, heart rhythm disruption (Raschak); type: in vivo; conditions: 1/20th of the LD50, concurrent aconitine infusion, time difference vs control
Procedure: To determine the influence of the active ingredient on male Wista rats (weighing 280 to 350 g), infusion with aconitine according to the method of Raschak is carried out (M. Raschak, Arzneim. Forschung (Drug Research) 25 (4) (1975) pp. 639-641). The results are given as the difference (that is, the difference in time as Δ%) between the active substance and a control sample in bringing about a disruption of heart rhythms (extrasystolic (ES), ventricular tachicardiea (VT), chamber flutter (KF)). In the control sample the active ingredient is replaced by a vehicle such as isotonic NaCl-solution or solution medium. The administration of the active ingredient is in a dosage of 1/20th of the LD50 and a constant concurrent infusion per unit of time of aconitine.

isolated left atria = assay: functional refractory period (FRP) and contraction force (CF) in isolated left atria, double stimulus method of Govier; design: species or system female guinea pigs; conditions: for ratio between contraction force-reducing dose and functional refractory period-prolonging dose: CF/FRP, indication of therapeutic range, 18 min; for EC (FRP prolonged to 125%) / IC25: Cavia porcellus, 0.3 h, isolated left atria of guinea pig, 18 minutes after application; for EC (FRP prolonged to 125%): read-out: concentration prolonging functional refractory period (FRP) to 125% of starting value; for IC25: read-out: concentration reducing contraction force (CF) to 75% of starting value
Procedure: The prolongation of the functional refractory period (FRP) and the contraction force (CF) in the isolated left atria of female guinea pigs (albinopirbright-white guinea pigs, body weight range 300-400 g) are determined according to the double stimulus method of Govier (see W. C. Govier, J. Pharmakol, Exp. Ther. 148 (1965) pp. 100-105). The concentrations which are given in the table below are the concentrations in […] which 18 minutes after application leads to a prolongation of the functional refractory period to 125% or respectively to a reduction of the contraction force to 75% of the starting value. Furthermore the ratio between contraction force-reducing dose and functional refractory period-prolonging dose is given. This ratio is an indication of the therapeutic range of the antiarrhythmic effect on the isolated organ (see K. Greef, Verh. Dtsch. Ges. Kreislaufforsch. 35 (1969) pp. 88-97).

male NMRI-mice [3] = assay: minimum symptom dose (Campbell and Richter); type: in vivo; design: key: (*): symptoms already indicating toxic area; conditions: i.p., changes in behavior in 2 out of 3 mice
Procedure: The minimum symptom dose is determined in male NMRI-mice (body weight range 18-22 g) according to the procedure of Campbell and Richter (see D. E. S. Campbell and W. Richter, Acta Pharmacol. Toxicol. 25 (1967), pp. 345-363). The minimum symptom dose is defined as that dose in μmol/kg which after i.p. administration causes changes in behavior in 2 out of 3 mice. The minimum symptom dose is a measure for evaluations undesirable side effects.

male NMRI-mice [4] = assay: acute toxicity (LD50) in mice; type: in vivo; conditions: i.p., mortality on 7th day
Procedure: as §1

| Structure (SMILES) | LD50 at 168 h ([1]; ip, i.p., read-out: LD50 i.p.) [µmol/kg] | LD50 at 168 h ([1]; po, p.o., read-out: LD50 p.o.) [µmol/kg] | Aconitin-Rat, ES (extrasystolic), Δ % [2] | Aconitin-Rat, KF (chamber flutter), Δ % [2] | Aconitin-Rat, VT (ventricular tachycardia), Δ % [2] | ratio between contraction force-reducing dose and functional refractory period-prolonging dose (isolated left atria) | EC (FRP prolonged to 125%) (isolated left atria) [µM] | IC25 (isolated left atria) [nM] | Min. Symptom-dose (male NMRI-mice [3]) | LD50 i.p. (male NMRI-mice [4]) [µmol/kg] |
| --- | --- | --- | --- | --- | --- | --- | --- | --- | --- | --- |
| CCC1C2CC3C4N(C)c5ccc(Br)cc5C45CC(C2C5O)[N+]3(CCN2CCCC2)C1O (stereo not drawn) [Example 8.b, Nb-(2-(1-pyrrolidinyl)ethyl)-10-bromoisoajmalinium bishydrogen tartrate] | 115 | 394 | +212% | +129% | > +149% | 2.3 | 0.9 | 2000 | 31 µmol/kg |  |
| CCC1C2CC3C4N(C)c5ccc(Br)cc5C45CC(C2C5O)[N+]3(CCN2CCCCC2)C1O (stereo not drawn) [Example 9.b, Nb-(2-(1-piperidinyl)ethyl)-10-bromoisoajmalinium bishydrogen tartrate] | 60 | 148 | +151% | +95% | +52% | 0.7 | 2.3 | 1400 | 31 µmol/kg |  |
| CCC1C2CC3C4N(C)c5ccc(Br)cc5C45CC(C2C5O)[N+]3(CCN2CCOCC2)C1O (stereo not drawn) [Example 10, Nb-[2-(4-morpholinyl)ethyl]-10-bromoisoajmalinium-chloride] | 45 | 470 | +67% | +43% | +69% | 12.9 | 0.2 | 2100 | 22 µmol/kg |  |
| CCC1C2CC3C4N(C)c5ccc(Br)cc5C45CC(C2C5O)[N+]3(C)C1O (stereo not drawn) [Example 11.b, Nb-methyl-10-bromoisoajmalinium hydrogen tartrate] | 190 | 1290 | +85% | +52% | +73% | 1.3 | 7.2 | 9000 | 88 µmol/kg |  |
| CCC1C2CC3C4N(C)c5ccc(Br)cc5C45CC(C2C5O)[N+]3(CC)C1O (stereo not drawn) [Example 12.b, Nb-ethyl-10-bromo-isoajmalinium hydrogen tartrate] | 122 | 1430 | +52% | +39% | +55% | 0.9 | 1.5 | 1400 | 21 µmol/kg |  |
| CCC[N+]12C(O)C(CC)C3CC1C1N(C)c4ccc(Br)cc4C14CC2C3C4O (stereo not drawn) [Example 13.b, Nb-propyl-10-bromoisoajmalinium hydrogen tartrate] |  | 437 | +110% | +110% | +130% | 2.4 | 0.6 | 1500 | 42 µmol/kg |  |
| CCCC[N+]12C(O)C(CC)C3CC1C1N(C)c4ccc(Br)cc4C14CC2C3C4O (stereo not drawn) [Example 14.b, Nb-butyl-10-bromoisoajmalinium hydrogen tartrate] | 76 | 198 | +80% | +88% | +87% | 0.7 | 2 | 1500 | 20 µmol/kg |  |
| CCCCCCCCCC[N+]12C(O)C(CC)C3CC1C1N(C)c4ccc(Br)cc4C14CC2C3C4O (stereo not drawn) [Example 15.b, Nb-decyl-10-bromoisoajmalinium hydrogen tartrate] | 72 | > 1440 | n.s. | n.s. | n.s. | 4.6 | 24.8 | 113000 | 287 µmol/kg |  |
| CCC1C2CC3C4N(C)c5ccc(Br)cc5C45CC(C2C5O)[N+]3(Cc2ccccc2)C1O (stereo not drawn) [Example 16.b, Nb-benzyl-10-bromoisoajmalinium hydrogen tartrate] | 483 | 2280 | +36% | +31% | +30% | 6.1 | 2.7 | 16600 | (*) |  |
| CCC1C2CC3C4N(C)c5ccc(Br)cc5C45CC(C2C5O)[N+]3(CCCN(CC)CC)C1O (stereo not drawn) [Example 19.b, Nb-diethylaminopropyl-10-bromoisoajmalinium bishydrogen tartrate] | 122 | 686 | +220% | +158% | +180% | 0.5 | 4.4 | 2000 | 31 µmol/kg |  |
| CCC1C2CC3C4N(C)c5ccc(Br)cc5C45CC(C2C5O)[N+]3(CC(O)c2ccccc2)C1O (stereo not drawn) [Example 21, Nb-(2-hydroxy-2-phenylethyl)-10-bromoisoajmalinium hydrogen tartrate] | 250 | 2180 | +89% | +72% | +92% | 0.8 | 3.8 | 3200 |  |  |
| CCC1C2CC3C4N(C)c5ccc(Br)cc5C45CC(C2C5O)[N+]3(CC(O)CN2CCCCC2)C1O (stereo not drawn) [Example 22, Nb-(2-hydroxy-3-(1-piperidinyl)propyl)-10-bromoisoajmalinium hydrogen tartrate] |  | 550 | +154% | +110% | +121% |  | 8.1 | 3400 | 72 µmol/kg | 168 |
| CCC[N+]12C(O)C(CC)C3CC1C1N(C)c4ccccc4C14CC2C3C4O (stereo not drawn) [Neo-Gilurytmal, Nb -propyl ajmalinium hydrogen tartrate, reference compound] |  |  | +86% | +50% | +80% |  | 1.8 | 260 | 12 µmol/kg |  |
